Read-outs that look alike come from different tables or passages of the source. *1 amine or outer side, *2 acyl side, *3 side chain or, on linkers, in order; H or OH if unused. Where a SMILES comes first, the peptide text is derived from it. [ ]: non-standard residue; d: D form. The star is where a group is joined. Nle(5,6-dioxo,6-NHMe) = CNC(=O)C(=O)CC[C@H](N)C(=O)O; X4 = O=C(CC[C@H](N[*:1])C(=O)[*:2])C(=O)NC1CC1; Isonicotinoyl(3-COOH) = O=C(O)c1cnccc1C(=O)*; Pro(4-oxo) = O=C1CN[C@H](C(=O)O)C1; Isopropoxycarbonyl = CC(C)OC(=O)*; Hyp = O=C(O)[C@@H]1C[C@@H](O)CN1; Tic = O=C(O)[C@@H]1Cc2ccccc2CN1; X8 = CC1(C)CC(CC(=O)*)C(=O)O1; Chg = N[C@H](C(=O)O)C1CCCCC1; Tle = CC(C)(C)[C@H](N)C(=O)O; Aib = CC(C)(N)C(=O)O
Columns and labels:
[1] = biological target: T1, recombinant human tissue transglutaminase (rhTG2) (Homo sapiens, UniProt P21980); experiment: Inhibition of rec. human tissue transglutaminase (fluorescence, Abz-APE(CAD-DNP)QEA-OH); format: biochemical
T1 construct: purchased Zedira 1022 (so in the source); T022)
T1 sequence (P21980 1-687): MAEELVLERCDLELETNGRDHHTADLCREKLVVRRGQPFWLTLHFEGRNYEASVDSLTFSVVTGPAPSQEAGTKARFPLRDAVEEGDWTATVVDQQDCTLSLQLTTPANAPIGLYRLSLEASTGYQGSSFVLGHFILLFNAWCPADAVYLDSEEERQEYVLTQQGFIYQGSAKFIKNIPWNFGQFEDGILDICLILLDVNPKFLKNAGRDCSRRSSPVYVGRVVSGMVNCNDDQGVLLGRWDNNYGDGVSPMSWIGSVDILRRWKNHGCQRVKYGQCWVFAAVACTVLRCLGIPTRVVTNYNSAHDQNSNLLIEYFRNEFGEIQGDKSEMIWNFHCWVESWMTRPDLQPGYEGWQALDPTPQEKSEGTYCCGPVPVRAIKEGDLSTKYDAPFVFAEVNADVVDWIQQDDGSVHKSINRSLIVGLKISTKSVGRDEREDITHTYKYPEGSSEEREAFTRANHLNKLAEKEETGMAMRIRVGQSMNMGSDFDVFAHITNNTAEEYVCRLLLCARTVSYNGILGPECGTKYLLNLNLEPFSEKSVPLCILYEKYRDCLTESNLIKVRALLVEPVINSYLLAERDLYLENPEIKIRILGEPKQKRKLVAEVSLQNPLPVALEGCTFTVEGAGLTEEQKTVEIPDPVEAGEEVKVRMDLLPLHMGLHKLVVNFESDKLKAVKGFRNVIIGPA
Procedure, shortened: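 His6-rhTG2 in a master mix (50 mM Tris-HCl pH 7.4, 7.5 mM CaCl2, 150 mM NaCl, 5 mM DTT, 13.4 mM glycine methylester, 50 μM Abz-APE(CAD-DNP)QEA-OH) was added to serially diluted inhibitor. Fluorescence (ex 313/em 418 nm) was followed at 37 °C for 20 min. IC50 came from the 10–20 min slope relative to the 2% DMSO control.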

[2] = biological target: T2, recombinant human factor XIII A-subunit (rhFXIII-A, plasma transglutaminase) (Homo sapiens, UniProt P00488); experiment: Inhibition of rec. human coagulation factor XIII (fluorescence, Abz-NE(CAD-DNP)EQVSPLILLK-OH); format: biochemical; conditions: read-out: IC50 FXIII
T2 construct: His6; purchased Zedira 1027 (so in the source); T027)
T2 sequence (P00488 39-732 limits assumed): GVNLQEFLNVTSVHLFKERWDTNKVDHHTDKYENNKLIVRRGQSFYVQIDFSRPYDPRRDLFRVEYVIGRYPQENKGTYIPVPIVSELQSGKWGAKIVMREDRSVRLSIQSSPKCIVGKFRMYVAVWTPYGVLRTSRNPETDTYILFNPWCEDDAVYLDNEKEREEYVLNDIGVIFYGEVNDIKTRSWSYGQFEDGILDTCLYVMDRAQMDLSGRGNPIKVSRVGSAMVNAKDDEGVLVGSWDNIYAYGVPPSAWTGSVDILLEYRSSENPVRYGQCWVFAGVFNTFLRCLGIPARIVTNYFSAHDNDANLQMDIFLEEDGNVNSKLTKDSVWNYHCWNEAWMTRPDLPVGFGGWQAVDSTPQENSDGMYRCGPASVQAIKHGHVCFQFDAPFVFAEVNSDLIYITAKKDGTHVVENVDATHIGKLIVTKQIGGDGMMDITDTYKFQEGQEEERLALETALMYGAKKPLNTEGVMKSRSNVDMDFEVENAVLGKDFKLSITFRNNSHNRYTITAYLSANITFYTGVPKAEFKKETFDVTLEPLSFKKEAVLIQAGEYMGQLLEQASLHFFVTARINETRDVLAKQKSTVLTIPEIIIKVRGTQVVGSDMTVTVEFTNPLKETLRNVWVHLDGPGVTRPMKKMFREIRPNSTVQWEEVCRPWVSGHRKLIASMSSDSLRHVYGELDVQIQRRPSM
Experimental: Method for Inhibition Studies of Rec. Human Coagulation Factor XIII (Plasma Transglutaminase, rhFXIII-A)
50 μg lyophilized His-tagged recombinant human factor XIII A-subunit (His6-rhFXIII, Zedira product 1027) is reconstituted in H2O (volume depends on original volume before lyophilization) resulting in a buffer containing 20 mM Tris-HCl, 150 mM NaCl, 1 mM EDTA, 1 mM DTT, 189 mg/ml maltodextrin, pH=7.5. The rhFXIII stock solution is diluted in buffer (50 mM Tris-HCl, 7.5 mM CaCl2, 150 mM NaCl, pH=7.4) to give a working solution of 59 U/ml (based on the amine-incorporation activity measured using transglutaminase activity assay #1036 (Zedira GmbH), described below).
A 10 mM inhibitor stock solution is prepared in DMSO, and from this a serial 1:2-fold dilution series is prepared also in DMSO. Each of the initial dilutions is subsequently diluted 1:50-fold with buffer (50 mM Tris-HCl, 7.5 mM CaCl2, 150 mM NaCl, pH=7.4) to yield the final working dilutions containing 2% (v/v) DMSO.
15 μl of inhibitor working dilution are added per well of a 96 well microtiter plate. As control, 15 μl of a 2% (v/v) DMSO solution prepared using the buffer mentioned above are added per well.
480 μl of His6-rhFXIII working solution and 120 μl human alpha thrombin (0.5 NIH units/μl) are added to 10.8 ml assay buffer (50 mM Tris-HCl, 7.5 mM CaCl2, 150 mM NaCl, 5 mM DTT, 13.4 mM glycine methylester, 50 μM Abz-NE(CAD-DNP)EQVSPLILLK-OH, (Zedira product A101; patent No.: EP 1781807B1), pH=7.4). From this master-mix solution, 285 μl are added per well containing the inhibitor. Increase in fluorescence is measured using […] and λem=418 nm at 37° C. for 35 min. A slope of the increase in fluorescence between 20 and 30 min is calculated for determination of the IC50 value (inhibitor concentration at which 50% of the initial FXIII activity is blocked).
Analysis of enzymatic activity is performed by calculation of the slope of an increase in fluorescence intensity. IC50 values are calculated by plotting the enzymatic activity (as percentage from control containing 2% DMSO instead of inhibitor) against the inhibitor concentration. IC50 is defined as the inhibitor concentration blocking 50%) of initial enzyme activity.

[3] = Table 1, selectivity with respect to FXIII

Compound	IC50 ([1]; Table 1, TG2 inhibitors) [nM]	IC50 [2, 3] [nM]	IC50 ([2]; Table 3, FXIII inhibitors) [nM]	IC50 ([1]; Table 2, TG2 inhibitors) [nM]
COC(=O)[C@H](CC(C)C)NC(=O)[C@@H]1CCCN1C(=O)[C@@H](NC(=O)[C@H](CCC(=O)C(N)=O)NC(C)=O)C(C)C [Compound E01, (S)-methyl 2-((S)-1-((S)-2-((S)-2-acetamido-6-amino-5,6-dioxohexanamido)-3-methylbutanoyl)pyrrolidine-2-carboxamido)-4-methylpentanoate]	600	> 100000	–	–
CC[C@@H](C)[C@H](NC(=O)[C@H](CCC(N)=O)NC(=O)[C@H](CCC(=O)C(N)=O)NC(C)=O)C(=O)N[C@H](C(N)=O)C(C)C [Compound E03, (S)-2-acetamido-N1-((S)-5-amino-1-((2S,3R)-1-((S)-1-amino-3-methyl-1-oxobutan-2-ylamino)-3-methyl-1-oxopentan-2-ylamino)-1,5-dioxopentan-2-yl)-5-oxohexanediamide]	750	> 100000	–	–
CCC(CC)CNC(=O)Cn1cccc(NC(=O)[C@H](CCC(=O)C(N)=O)NC(=O)c2cncn2C)c1=O [Compound E04, (S)—N1-(1-(2-(2-ethylbutylamino)-2-oxoethyl)-2-oxo-1,2-dihydropyridin-3-yl)-2-(1-methyl-1H-imidazole-5-carboxamido)-5-oxohexanediamide]	100	> 100000	–	–
Cc1nc(Br)sc1C(=O)N[C@@H](CCC(=O)C(N)=O)C(=O)Nc1cccn(CC(=O)NCCC(C)C)c1=O [Compound E05, (S)-2-(2-bromo-4-methylthiazole-5-carboxamido)-N1-(1-(2-(isopentylamino)-2-oxoethyl)-2-oxo-1,2-dihydropyridin-3-yl)-5-oxohexanediamide]	150	> 100000	–	–
CCC(CC)CNC(=O)Cn1cccc(NC(=O)[C@H](CCC(=O)C(=O)NC)NC(=O)c2cncn2C)c1=O [Compound E16, (S)—N1-(1-(2-(2-ethylbutylamino)-2-oxoethyl)-2-oxo-1,2-dihydropyridin-3-yl)-N6-methyl-2-(1-methyl-1H-imidazole-5-carboxamido)-5-oxonexanediamide]	50	> 100000	–	–
CC(C)(C)[C@H](NC(=O)[C@H](CCC(=O)C(=O)NC1CC1)NC(=O)c1ccncc1C(=O)O)C(=O)N1CC(=O)C[C@H]1C(=O)N[C@H](C(=O)N[C@H](C(N)=O)C1CCCCC1)C1CCCCC1 [Compound E28, 4-((S)-1-((S)-1-((S)-2-((S)-2-((S)-2-amino-1-cyclohexyl-2-oxoethylamino)-1-cyclo-hexyl-2-oxoethylcarbamoyl)-4-oxopyrrolidin-1-yl)-3,3-dimethyl-1-oxobutan-2-yl-amino)-6-(cyclopropylamino)-1,5,6-trioxohexan-2-ylcarbamoyl)nicotinic acid] ({Isonicotinoyl(3-COOH)}-[X4][Tle][Pro(4-oxo)][Chg][Chg]-NH2)	–	–	275	–
CCC(CC)CNC(=O)Cn1cccc(NC(=O)[C@H](CCC(=O)C(=O)CC(C)C)NC(=O)c2cncn2C)c1=O [Compound E80, (S)—N-(1-(1-(2-(2-ethylbutylamino)-2-oxoethyl)-2-oxo-1,2-dihydropyridin-3-ylamino)-8-methyl-1,5,6-trioxononan-2-yl)-1-methyl-1H-imidazole-5-carboxamide]	–	–	–	135
CCC(CC)CNC(=O)Cn1cccc(NC(=O)[C@H](CCC(=O)C(=O)c2cn(C)cn2)NC(=O)c2cncn2C)c1=O [Compound E81, (S)—N-(1-(1-(2-(2-ethylbutylamino)-2-oxoethyl)-2-oxo-1,2-dihydropyridin-3-ylamino)-6-(1-methyl-1H-imidazol-4-yl)-1,5,6-trioxohexan-2-yl)-1-methyl-1H-imidazole-5-carboxamide]	–	–	–	740
CNC(=O)C(=O)CC[C@H](NC(=O)CC1CC(C)(C)OC1=O)C(=O)N[C@@H](Cc1c[nH]cn1)C(=O)N[C@@H](Cc1ccc(O)cc1)C(=O)N1Cc2ccccc2C[C@H]1C(N)=O (stereo partly drawn) [Compound E82, (2S)-N1-((S)-1-((S)-1-((S)-3-carbamoyl-3,4-dihydroisoquinolin-2(1H)-yl)-3-(4-hydroxy-phenyl)-1-oxopropan-2-ylamino)-3-(1H-imidazol-4-yl)-1-oxopropan-2-yl)-2-(2-(5,5-dimethyl-2-oxotetrahydrofuran-3-yl)acetamido)-N6-methyl-5-oxohexanediamide] (X8-[Nle(5,6-dioxo,6-NHMe)]HY[Tic]-NH2)	–	–	–	1350
CNC(=O)C(=O)CC[C@H](NC(=O)Cc1cc(C)nn1C)C(=O)Nc1cccc(C(=O)N[C@@H](Cc2ccc(-c3ccccc3)cc2)C(=O)N2C[C@H](Oc3ccccc3)C[C@H]2C(N)=O)c1 [Compound E83, (S)—N1-(3-((S)-3-(biphenyl-4-yl)-1-((2S,4R)-2-carbamoyl-4-phenoxypyrrolidin-1-yl)-1-oxopropan-2-ylcarbamoyl)phenyl)-2-(2-(1,3-dimethyl-1H-pyrazol-5-yl)acetamido)-N6-methyl-5-oxohexanediamide]	–	–	–	2000
CNC(=O)C(=O)CC[C@H](NC(=O)OC(C)C)C(=O)N[C@@H](CCCNC(=N)N)C(=O)NC(C)(C)C(=O)N1C[C@H](O)C[C@H]1C(N)=O [Compound E84, isopropyl (S)-1-((S)-1-(1-((2S,4R)-2-carbamoyl-4-hydroxypyrrolidin-1-yl)-2-methyl-1-oxopropan-2-ylamino)-5-guanidino-1-oxopentan-2-ylamino)-6-(methylamino)-1,5,6-trioxohexan-2-ylcarbamate] (Isopropoxycarbonyl-[Nle(5,6-dioxo,6-NHMe)]R[Aib][Hyp]-NH2)	–	–	–	960
